Test results reported in BindingDB's records for doi:10.7270/Q2M043S8 (University of Pittsburgh, 2006).

Biological target: T1, Dual specificity protein phosphatase 6 (Rattus norvegicus, UniProt Q64346)
T1 sequence (Q64346 whole entry): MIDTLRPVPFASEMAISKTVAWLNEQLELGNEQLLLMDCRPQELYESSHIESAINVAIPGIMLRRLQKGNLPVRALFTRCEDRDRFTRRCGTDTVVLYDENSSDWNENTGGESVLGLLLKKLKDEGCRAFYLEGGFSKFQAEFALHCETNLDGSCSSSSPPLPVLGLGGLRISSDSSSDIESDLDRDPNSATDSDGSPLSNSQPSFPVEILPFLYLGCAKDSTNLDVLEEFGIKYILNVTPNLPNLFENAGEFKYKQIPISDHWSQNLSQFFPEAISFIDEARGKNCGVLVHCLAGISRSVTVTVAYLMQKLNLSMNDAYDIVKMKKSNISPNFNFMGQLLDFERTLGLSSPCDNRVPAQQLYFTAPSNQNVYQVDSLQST
Experiment: MKP-3 phosphatase inhibition with catalase present, dose response, biochemical, rat DUSP6, catalase added, probe assessment (AID 564)

SMILES	IC50 [µM]
Cc1ccc(C)n1-c1cccc(C(=O)O)c1	> 50
O=C(Nc1ccc2nc(-c3ccco3)c(-c3ccco3)nc2c1)N1CCCCCC1	> 50
CCCCCC#CCC#CCC#CCC#CCCCC(=O)O	> 50
Cn1ncnc2c(=O)n(C)c(=O)nc1-2	> 50
[O-]/[N+](=C\c1ccncc1)c1ccccc1	> 50
O=C1C=Cc2ccccc2C1=O [1,2-dihydronaphthalene-1,2-dione]	> 50
Cc1nc2cc(-c3cccc(F)c3)nn2c(C)c1CCC(=O)N1CCC2(CC1)OCCO2 [1-(1,4-dioxa-8-azaspiro[4.5]decan-8-yl)-3-[2-(3-fluorophenyl)-5,7-dimethyl-6-pyrazolo[1,5-a]pyrimidinyl]-1-propanone]	> 50
CCn1nc(-c2ccccc2)nc2c(=O)n(C)c(=O)nc1-2 [1-Ethyl-6-methyl-3-phenyl-1H-pyrimido[5,4-e][1,2,4]triazine-5,7-dione]	> 50
Cc1cc(C)n2c(SCC(=O)N3CCN(S(=O)(=O)c4ccc(Cl)cc4)CC3)nnc2n1 [1-[4-(4-chlorophenyl)sulfonyl-1-piperazinyl]-2-[(5,7-dimethyl-[1,2,4]triazolo[4,3-a]pyrimidin-3-yl)thio]ethanone]	> 50
[O-]/[N+](=C\c1ccc(OC(F)F)cc1)c1ccccc1 [1-[4-(difluoromethoxy)phenyl]-N-phenylmethanimine oxide]	> 50
CCCCn1c(SCC(=O)c2ccc(OC)cc2OC)nc2cc(S(N)(=O)=O)ccc21 [1-butyl-2-[2-(2,4-dimethoxyphenyl)-2-oxidanylidene-ethyl]sulfanyl-benzimidazole-5-sulfonamide]	> 50
CCn1nc(-c2cccs2)nc2c(=O)n(C)c(=O)nc1-2 [1-ethyl-6-methyl-3-thiophen-2-yl-pyrimido[5,4-e][1,2,4]triazine-5,7-dione]	> 50
O=C(Nc1ccccc1)c1ccc2nc(-c3ccco3)c(-c3ccco3)nc2c1 [2,3-di-2-furyl-N-phenyl-6-quinoxalinecarboxamide]	> 50
CC(C)Cn1c(N)c(C(=O)COC(=O)c2cc(-c3ccco3)nc3ccccc23)c(=O)n(C)c1=O [2-(2-furanyl)-4-quinolinecarboxylic acid [2-[4-amino-1-methyl-3-(2-methylpropyl)-2,6-dioxo-5-pyrimidinyl]-2-oxoethyl] ester]	> 50
CCOc1ccc(-c2cc3nc(C4CCN(C(=O)OC(C)(C)C)CC4)c(C(=O)O)cn3n2)cc1 [2-(4-ethoxyphenyl)-5-[1-[(2-methylpropan-2-yl)oxy-oxomethyl]-4-piperidinyl]-6-pyrazolo[1,5-a]pyrimidinecarboxylic acid]	> 50
COc1ccc(-c2cc3nc(C4CCN(C(=O)OC(C)(C)C)CC4)c(C(=O)O)cn3n2)cc1 [2-(4-methoxyphenyl)-5-[1-[(2-methylpropan-2-yl)oxy-oxomethyl]-4-piperidinyl]-6-pyrazolo[1,5-a]pyrimidinecarboxylic acid]	> 50
Cc1cccc(NC(=O)c2cc(NC(=O)C3CCCCC3C(=O)O)ccc2N2CCCCC2)c1 (configuration not stated) [2-({[3-{[(3-methylphenyl)amino]carbonyl}-4-(1-piperidinyl)phenyl]amino}carbonyl)cyclohexanecarboxylic acid]	> 50
Cc1ccc(/C=C/C2=Cc3c(sc(NC(=O)CSc4nnc(N)[nH]4)c3C#N)C(C)(C)C2)o1 [2-[(5-azanyl-1H-1,2,4-triazol-3-yl)sulfanyl]-N-[3-cyano-7,7-dimethyl-5-[(E)-2-(5-methylfuran-2-yl)ethenyl]-6H-1-benzothiophen-2-yl]ethanamide]	> 50
CCCCNC(=O)c1c(N)n(CCCOC)c2nc3ccccc3nc12 [2-amino-N-butyl-1-(3-methoxypropyl)-3-pyrrolo[3,2-b]quinoxalinecarboxamide]	> 50

SMILES	IC50 [µM]
N#Cc1c(N)sc(=S)c2c1CCN(Cc1ccccc1)C2 [3-Amino-7-benzyl-1-thioxo-5,6,7,8-tetrahydro-1H-thiopyrano[3,4-c]pyridine-4-carbonitrile]	47.9
O=C1C=C(NCc2ccc(Cl)c(Cl)c2)CC1 [3-[(3,4-dichlorobenzyl)amino]cyclopent-2-en-1-one]	> 50
CCCSc1nnc(NC(=O)c2sc3nc(-c4cccs4)ccc3c2N)s1 [3-amino-N-(5-propylsulfanyl-1,3,4-thiadiazol-2-yl)-6-thiophen-2-ylthieno[2,3-b]pyridine-2-carboxamide]	> 50
O=C1Nc2ccccc2SC(c2ccccc2)C1O (configuration not stated) [3-hydroxy-2-phenyl-2,3-dihydro-1,5-benzothiazepin-4(5H)-one]	> 50
CC(C)(C)N1C(=O)Cc2c1nc(N)c1c(N)nc(N3CCCCC3CO)c(C#N)c21 (configuration not stated) [5,6-bis(azanyl)-3-tert-butyl-8-[2-(hydroxymethyl)piperidin-1-yl]-2-oxidanylidene-1H-pyrrolo[2,3-c][2,7]naphthyridine-9-carbonitrile]	> 50
COc1cc(/C=C(/C#N)c2ccc(F)cc2)ccc1OCc1ccc(C(=O)O)o1 [5-({4-[2-cyano-2-(4-fluorophenyl)vinyl]-2-methoxyphenoxy}methyl)-2-furoic acid]	> 50
COc1ccc(Br)cc1C=c1sc2nc(-c3ccco3)nn2c1=O [5-[(5-bromanyl-2-methoxy-phenyl)methylidene]-2-(furan-2-yl)-[1,3]thiazolo[3,2-b][1,2,4]triazol-6-one]	> 50
CCOc1cc(/C=C(/C#N)c2ccc(F)cc2)ccc1OCc1ccc(C(=O)O)o1 [5-[[4-[(E)-2-cyano-2-(4-fluorophenyl)ethenyl]-2-ethoxyphenoxy]methyl]furan-2-carboxylic acid]	> 50
N#Cc1c(NC(=O)c2ccc(Br)o2)n(-c2ccccc2)c2nc3ccccc3nc12 [5-bromanyl-N-(3-cyano-1-phenyl-pyrrolo[3,2-b]quinoxalin-2-yl)furan-2-carboxamide]	> 50
Cc1cccc(N2CCN(C(=O)Cc3c(C(=O)O)[nH]c4ccc(Cl)cc34)CC2)c1C [5-chloranyl-3-[2-[4-(2,3-dimethylphenyl)piperazin-1-yl]-2-oxidanylidene-ethyl]-1H-indole-2-carboxylic acid]	> 50
CCCCCNC(=O)c1ccc2c(=O)[nH]c3c(C(=O)NCC4CCCO4)sc(=S)n3c2c1 (configuration not stated) [5-oxo-N3-(2-oxolanylmethyl)-N8-pentyl-1-sulfanylidene-4H-thiazolo[3,4-a]quinazoline-3,8-dicarboxamide]	> 50
Cc1nc2c(C(=O)NCCC3=CCCCC3)c[nH]n2c(=O)c1Cl [6-chloro-N-(2-cyclohex-1-en-1-ylethyl)-7-hydroxy-5-methylpyrazolo[1,5-a]pyrimidine-3-carboxamide]	> 50
O=C(c1cccs1)c1no[n+]([O-])c1C(=O)c1cccs1 [(5-oxidanidyl-4-thiophen-2-ylcarbonyl-1,2,5-oxadiazol-5-ium-3-yl)-thiophen-2-yl-methanone]	> 50
Nc1c(N2CCCC2)cc(Cl)c2nonc12 [(7-chloro-5-pyrrolidino-benzofurazan-4-yl)amine]	> 50
[O-]/[N+](=C/c1ccc(F)cc1)c1ccccc1 [(E)-(4-fluorobenzylidene)(phenyl)azane oxide]	> 50
CC1=C(/C=C/C(C)=C/C=C/C(C)=C/C(=O)O)C(C)(C)CCC1 [ALL-TRANS-RETINOIC ACID]	> 50
CC(=O)[C@@H]1[C@@H]2C(=O)N(c3ccc(F)c(Cl)c3)C(=O)[C@@H]2C2c3ccccc3C=CN21 (some centres not stated) [MLS000040594]	> 50
COCCCn1c(N)c(C(=O)NCCC(C)C)c2nc3ccccc3nc21 [MLS000041744]	> 50
CCn1c(SCC(=O)Nc2ccc3c(c2)c2ccccc2n3CC)nnc1-c1ccco1 [MLS000050867]	> 50

SMILES	IC50 [µM]
O=C1C(=C2C(=O)c3ccccc3C2=O)Nc2ccccc21 [MLS000071738]	> 50
COc1ccc(-n2c(NC(=O)c3ccco3)c(C#N)c3nc4ccccc4nc32)cc1 [MLS000079925]	> 50
COc1ccc(Cn2c(C)nc3c(c2=O)c2nc4ccccc4nc2n3Cc2ccco2)cc1 [MLS000079944]	47.8
Cc1ccc(-c2csc(NC(=O)c3ccno3)n2)cc1 [MLS000081820]	> 50
CC(C)Sc1nc2sc3c(c2c2nnc(SCC(=O)NCc4ccco4)n12)CCCC3 [MLS000082957]	> 50
Nc1nc2c(s1)CCc1c-2cnn1-c1ccccc1 [MLS000085948]	> 50
Cc1cc(NC(=O)c2ccc(S(=O)(=O)N3CCCC3)cc2)nc2c1c(=O)oc1ccccc12 [MLS000091355]	> 50
FC(F)(F)c1ccc(N2CCOCC2)c(Nc2nc3ccccc3n3cnnc23)c1 [MLS000093276]	> 50
COC(=O)c1ccccc1NC(=O)CN1C(=O)C2CCCN2c2ncc(Cl)cc21 (configuration not stated) [MLS000094302]	> 50
CCc1ccc(NC(=O)CSc2nc3ccccc3c(=O)n2CCN2CCOCC2)cc1 [MLS000095236]	> 50
Cc1c(N=c2c(=O)c3ccccc3c2=O)c(=O)n(-c2ccccc2)n1C [MLS000105950]	> 50
CCOc1ccc2noc3c2c1C(=O)c1ccccc1-3 [MLS000106837]	> 50
COc1ccc2noc3c2c1C(=O)c1ccccc1-3 [MLS000106874]	> 50
CCOC(=O)c1ccc2c(c1)C1C=CCC1C(C(=O)O)N2 (configuration not stated) [MLS-0025126.0001]	> 50
O=C(NC1(O)C(=O)c2ccccc2C1=O)c1ccccc1 [N-(2-hydroxy-1,3-dioxo-2-indenyl)benzamide]	> 50
O=C(OC1CCCCC1)c1ccc2c(c1)C1C=CCC1C(C(=O)O)N2 (configuration not stated) [SMR000019385]	> 50
O=C1c2ccccc2-c2onc3ccc(NCCCn4ccnc4)c1c23 [SMR000044769]	47.6
CCCCn1c(NC(=O)c2ccccc2)c(C#N)c2nc3ccccc3nc21 [SMR000060333]	> 50
N#Cc1c(N2CCCC2)nc(N)c2c(N)nc(N3CCCC3)cc12 [SMR000061605]	> 50
